According to US10226465B2, “Composition for use in increasing engraftment efficacy of haematopoetic stem cells after transplantation” (priority 2015, dated 2019):

What was measured:
[1] = system: murine haematopoetic progenitor cells; experiment: In vitro migration assay (Transwell, towards SDF-1/CXCL12), murine cells; format: cell-based; conditions: 100 ng/ml murine SDF-1, 4 h; for SDF-1/CXCL12-induced migration of Treprostinil+forskolin-stimulated cells: 10 μM AMD3100
Experimental: Murine haematopoetic progenitor cells were pretreated in vitro with the combination of 10 μM Treprostinil (Trep) and 30 μM forskolin (Fsk) (Sigma Aldrich, Vienna, Austria) or vehicle for 1 h at 37° C. in growth factor containing stem cell medium [(StemSpan™ (SFEM) (Stemcell technologies, USA) (50 ng/mL murine stem cell factor (SCF), 50 ng/mL fms-like tyrosine kinase-3 ligand (Flt3), 50 ng/mL interleukin 11 (IL11) and 150 ng/mL murine interleukin 3 (mIL3)] purchased from PeproTech (London, United Kingdom)). Thereafter cells were washed and resuspended at 2×10^6 cells/mL in medium.
The cell suspension (0.1 mL containing 2×10^5 cells) was added to the upper chamber of Transwell™ dishes (5 μm pore diameter). The bottom chamber was followed with medium or medium containing 100 ng/ml murine stromal derived factor-1 (SDF-1=CXCL12). Cells were allowed to migrate for 4 h at 37° C. Subsequently, the number of cells recovered from the lower chamber was determined by a cell counter. The number of migrated cells was expressed as percentage of total cells added to the upper chamber.
Hematopoietic stem and progenitor cells were preincubated with Treprostinil (10 μM; T) and forskolin (30 μM; F) for 1 h at 37° C., washed and resuspended at a cell density of 2×10^6 cells/mL. The cell suspension (2×10^5 cells in 0.1 mL) was added to the upper chamber the Transwell™ dish, which contained medium with and without 10 ΞM CXCR4 antagonist AMD3100 (10 μM). The medium in the lower chamber contained 100 ng/ml murine SDF-1. The incubation lasted for 4 h at 37° C.; thereafter cells recovered in the lower chamber were counted as outlined in the legend to FIG. 1. Data shown are means±SEM from three independent experiments carried out in triplicate. Statistically significant differences were assessed by one way ANOVA followed by Dunnett's multiple comparisons (***, p<0.001).

[2] = system: lethally irradiated recipient BALB/c mice; experiment: Bone marrow transplantation (survival of recipient mice, Example 6); format: in vivo
Experimental: These were subsequently divided in two groups. Mice allocated to group 1 (n=10) were further subjected to in vivo treatment with Treprostinil (0.15 mg kg^−1 8 h^−1) whereas mice in group 2 (n=10) received both Treprostinil (0.15 mg kg^−1 8 h^−1) and AMD3100 (3.3 mg kg^−1 8 h^−1) by subcutaneous injection every 8 h for 10 days.
Isogenic recipient mice (C57BL/6 or BALB/c) were subjected to lethal irradiation. […] Lin^− (Sca1^+ and c-Kit^+) HSPCs cells were prepared as outlined above and were pretreated ex vivo in the absence and presence of the combination of 10 μM Treprostinil+30 μM forskolin (FSK) for 1 h at 37° C. Thereafter, the cells (1-5*10^5/mouse) were injected via the tail vein. White blood cell counts were determined by FACS, blood samples were collected every 3 to 5 days starting on day 9 (where blood cell count was ˜1 G/L. In some instances, mice (25-30 g) were also treated with (i) Treprostinil (0.15 mg kg 8 h^−1) and vildagliptin (10 mg kg−^1 12 h^−1) or with the combination of both administered subcutaneously every 8 h for 10 days.
If this was the case, the action of vildagliptin ought to be blunted by simultaneous administration of AMD3100/plerixafor. An experiment was done with seven groups of recipient BALB/c mice (5/group). Several of these groups were internal controls, which were included to verify that earlier findings were recapitulated. […] It is stressed that all conditions were tested in parallel, thus a comparison is legitimate.
Murine HPSCs isolated from donor BALB/c mice were treated in vitro with 10 μM Treprostinil and 30 μM forskolin or vehicle (solid line) for 1 h at 37° C. After washing, 2×10^5 cells were injected into lethally irradiated (10 Gy) recipient BALB/c mice. […] Another group of mice (dotted lines/triangles; n=20) received HSPCs pretreated with 10 μM Treprostinil and 30 μM forskolin, and were also treated in vivo with Treprostinil (0.15 mg kg−1 8 h−1). The next group of mice (dotted lines/squares; n=20) again received in vitro HSPCs pretreated with forskolin+Treprostinil and were further treated in vivo with both Treprostinil (0.15 mg kg^−1 8 h^−1) and vildagliptin (10 mg/kg/24 h). Finally, a group of mice (dashed lines/circles; n=20) received in vitro HSPCs pretreated with forskolin+Treprostinil and were treated in vivo with vildagliptin (10 mg kg−1 per day). In vivo treatment was done by subcutaneous injections, it was initiated directly after transplantation and continued for 10 days.

[3] = system: lethally irradiated recipient C57Bl/6 (CD45.2+) mice; experiment: Homing assay (CD45.1+ donor cells in bone marrow of CD45.2+ recipients, FACS, Example 6); format: in vivo
Experimental: The lineage-negative HSPCs were isolated from whole bone marrow cells of donor mice B6.SJL-PtrcAPep3B/Boyl (CD45.1+) using MACS micro beads (see above). The cells were in vitro treated with 10 μM Treprostinil and 30 μM forskolin or vehicle control for 1 h at 37° C. After washing, 0.2×10^6 lineage-negative CD 45.1^+ cells were injected in to the lethally irradiated (10 Gy) recipient C57Bl/6 (CD45.2^+) mice. Recipient mice were also treated in vivo with either Treprostinil (0.15 mg kg 8 h^−1), vildagliptin (10 mg kg^−1) or with the combination of both drugs subcutaneously. Control mice were injected with the same volume of vehicle. The whole bone marrow cells were isolated from recipient mice 16 h after transplantation. After lysis of red blood cells, the cells were stained for CD45.1 and CD45.2 markers. The proportion of CD45.1^+ and CD45.2^+ cells in the bone marrow was determined by flow cytometry.
Given that DPP-IV inhibitors may be a suitable combination partner for Treprostinil, we explored whether the DPP-IV inhibitor vildagliptin enhanced the action of Treprostinil. This was first tested in an approach, which measured the ability of injected HSPCs to home into the bone marrow: HSPCs harvested from the bone marrow of CD 45.1+ donor mice were injected into isogenic CD45.2 recipients. The animals were sacrificed after 16 h and the amount of CD45.1+ cells, which were retrieved from their bone marrows was quantified by FACS.
The recipient mice were then divided in 7 groups. […] Mice allocated to group 3 received only in vitro-treated cells, those in group 4 were subjected—in addition—to in vivo Treprostinil (Trep, 0.15 mg kg^−1 8 h^−1). Mice assigned to group 5 were administered a combined in vivo treatment with Treprostinil (0.15 mg kg−1 8 h−1) and AMD3100 (3.3 mg kg^−1 8 h^−1). Mice in group 5 received in vivo both Treprostinil (0.15 mg kg^−1 8 h^−1) and vildagliptin (10 mg kg^−1/d), and finally mice in group 6 were subjected to in vivo vildagliptin. The ability of CD45.1+cells to home into the bone marrow was assessed after 16 h by analysing the bone marrow of the recipients by FACS. Data are as means±SEM (n=3). Statistical comparisons were done by ANOVA followed by Tukey's multiple comparison.

EP2 receptors = EP2 receptors (Homo sapiens, UniProt P43116); conditions: read-out: Kd for activation of isolated EP2 receptors; cited from earlier work
EP2 receptors, sequence (P43116 whole entry): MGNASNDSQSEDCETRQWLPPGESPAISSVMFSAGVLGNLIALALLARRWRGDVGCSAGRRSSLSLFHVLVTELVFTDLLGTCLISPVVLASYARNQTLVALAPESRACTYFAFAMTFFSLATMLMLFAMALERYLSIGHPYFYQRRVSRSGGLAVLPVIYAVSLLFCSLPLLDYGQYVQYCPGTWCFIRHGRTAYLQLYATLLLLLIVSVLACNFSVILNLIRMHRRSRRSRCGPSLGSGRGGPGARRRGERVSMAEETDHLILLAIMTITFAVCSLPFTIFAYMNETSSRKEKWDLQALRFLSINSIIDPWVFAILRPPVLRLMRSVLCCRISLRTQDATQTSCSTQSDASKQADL

[4] = system: human haematopoetic CD34+ stem and progenitor cells; experiment: [3H]cAMP accumulation assay; format: cell-based; conditions: for cAMP response after pertussis toxin pretreatment: pertussis toxin 16 h, + 30 μM forskolin
Experimental: Human haematopoetic CD34+ stem and progenitor cells (HSPCs, 4*10^5/mL) were first preincubated for 16 h in the absence presence of 100 ng/ml pertussis toxin (Sigma Aldrich) in X-VIVO15 medium supplemented with growth factors followed by metabolic labelling of the adenine nucleotide pool by an additional 4 h incubation period in [^3H]adenine (Perkin Elmer, 1 μCi/mL) in the X-VIVO15 medium supplemented with growth factors and 10 μg/mL adenosine deaminase (Roche). Thereafter, the cells were challenged with 1 or 10 μM Treprostinil, 1 or 10 μM dimethyl-PGE2 (dmPGE2), forskolin (30 μM) or the combination of forskolin and prostanoids for 30 min. The cells were then pelleted (5 min at 100 g), the medium was removed and the pellet was lysed in ice-cold 2.5% perchloric acid (0.9 mL) containing 0.1 mM cAMP, held on ice for 1 h and neutralized with 4.2 M KOH (0.1 mL). ATP and cAMP were separated by sequential chromatography on columns containing Dowex AG50-X8 and neutral alumina (3).
After metabolic labelling with [3H]adenine, human HSPCs were stimulated with Treprostinil (Trep, 10 μM), dmPGE2 (10 μM) or forskolin (Fsk, 30 μM), the combination of Treprostinil (10 μM) or of dmPGE2 (10 μM) with forskolin (30 μM) as outlined under Materials and Methods. Where indicated HSPCs had been pretreated with pertussis toxin (PTX) for 16 h prior to stimulation. Data are from three independent experiments carried out in triplicate, error bars indicate s.e.m. […] This difference was abolished by pertussis toxin pretreatment (ns, not significant).

[5] = system: lethally irradiated recipient BALB/c mice; experiment: In vivo engraftment assay (survival, Example 5); conditions: 0.2×10^6 pretreated cells, 10/group
Experimental: Haematopoetic progenitor cells isolated from bone marrow of donor mice (BALB/c) as outlined in the legend to FIG. 4. The cells were treated in vitro with 10 μM Treprostinil and 30 μM forskolin or vehicle for 1 h at 37° C. After washing, 0.2×10^6 lineage-negative haematopoetic progenitor cells were injected via the tail vein into lethally irradiated (9 Gy) recipient BALB/c mice (10/group). If not pretreated in vitro with the combination of Treprostinil and forskolin, this number of haematopoetic progenitor cells is too low to rescue the recipient animals. Accordingly, the group of mice, which received cells that had not been pretreated, died within the first week (black line, CTRL). The limiting number of haematopoetic stem cells sufficed to rescue 50% of the mice, which had received pretreated cells and were then treated with Treprostinil (3 μg/8 h s.c. for 10 days; red curve labeled in vitro pretreated cells+in vivo treatment of recipient mice with Treprostinil). […] In contrast, mice, which received the combination of Treprostinil (3 μg/8 h) and vildagliptin (10 mg/kg/24 h) had the worst outcome of all recipient mice that had received pretreated cells: only 2 out of ten mice survived (grey line labeled in vitro pretreated cells+in vivo treatment of recipient mice with the combination of Treprostinil and vildagliptin). […]

[6] = system: lethally irradiated recipient BALB/c mice; experiment: In vivo homing assay (colony formation from recipient bone marrow, Example 4)
[7] = seven groups, 5/group, all received 2*10^5 Treprostinil+forskolin-pretreated HSPCs, in vivo treatment as named
[8] = pretreated HSPCs, recipients given Treprostinil in vivo plus the named drug (AMD3100 3.3 mg kg-1 8 h-1 or vildagliptin 10 mg kg-1/d)
[9] = 2*10^5 Treprostinil+forskolin-pretreated HSPCs, in vivo s.c. for 10 days (Treprostinil 0.15 mg kg-1 8 h-1 or vildagliptin 10 mg kg-1 per day), n=20
[10] = Treprostinil+forskolin-pretreated HSPCs, recipients given one drug in vivo (Treprostinil 0.15 mg kg-1 8 h-1 or vildagliptin 10 mg kg-1/d), 16 h
[11] = Treprostinil+forskolin-treated cells, recipients treated in vivo (Treprostinil 3 μg/8 h, vildagliptin 10 mg/kg/24 h)
[12] = untreated cells, recipients treated in vivo (Treprostinil 3 μg/8 h, vildagliptin 10 mg/kg/24 h) from 24 h before transplantation

SMILES	survival of recipient mice [2, 7]	homing of CD45.1+ cells into bone marrow [3, 8]	cAMP response after pertussis toxin pretreatment [4]	survival of recipient mice [2, 9]	homing of CD45.1+ cells into bone marrow [3, 10]	homing into bone marrow (colonies) [6, 11]	homing into bone marrow (colonies) [6, 12]	also measured
c1cc(CN2CCCNCCNCCCNCC2)ccc1CN1CCCNCCNCCCNCC1 [AMD3100]	Enhances Survival	abolished	–	–	–	–	–	SDF-1/CXCL12-induced migration of Treprostinil+forskolin-stimulated cells [1]: inhibits the SDF-1/CXCL12-induced migration; SDF-1/CXCL12-induced migration of Treprostinil+forskolin-stimulated cells ([1]; listed as plerixafor/AMD3100): blocked; survival of recipient mice ([2]; pretreated HSPCs, AMD3100 3.3 mg kg-1 8 h-1 concomitant with Treprostinil 0.15 mg kg-1 8 h-1 s.c. 10 days, n=10): all recipient mice eventually succumbed to bone marrow failure
CCCCC(C)(C)[C@H](O)/C=C/[C@H]1[C@H](O)CC(=O)[C@@H]1C/C=C\CCCC(=O)O [dmPGE2, 16,16-dimethyl PGE2]	–	–	increased the response to dmPGE2	–	–	–	–	Kd (EP2 receptors): ~1 nM
N#C[C@@H]1CCCN1C(=O)CNC12CC3CC(CC(O)(C3)C1)C2 [vildagliptin]	fared best	abrigated the homing effect of Treprostinil	–	100%	most pronounced increase in homing	promoted homing	did not promote homing	SDF-1/CXCL12-induced migration of Treprostinil+forskolin-preincubated cells ([1]; 30 nM vildagliptin): enhances the SDF-1/CXCL12-induced migration; mice survived ([5]; in vivo s.c. for 10 days (vildagliptin 10 mg/24 h; combination Treprostinil 3 μg/8 h + vildagliptin 10 mg/kg/24 h)): 10 out of 10; homing of CD45.1+ cells into bone marrow ([3]; untreated HSPCs, recipients given vildagliptin 10 mg kg-1/d in vivo): did not enhance homing
CCCCC[C@H](O)CC[C@@H]1[C@H]2Cc3cccc(OCC(=O)[O-])c3C[C@H]2C[C@H]1O.[Na+] [Treprostinil, (1R,2R,3aS,9aS)-[[2,3,3a,4,9,9a-hexahydro-2-hydroxy-1-[(3S)-3-hydroxyoctyl]-1H-benz[f]inden-5-yl]oxy]acetic acid monosodium salt]	–	–	no significant difference	60%	increased their homing into the bone marrow	promoted homing	did not promote homing	shape of in vivo dose-response-curve for bone marrow engraftment ([2]; noted previously, higher doses less beneficial than standard dose): bell-shaped; mice rescued ([5]; in vivo Treprostinil 3 μg/8 h s.c. for 10 days): 50%; cAMP in haematopoetic progenitor cells [4]: stimulates cAMP; cAMP accumulation, efficacy compared ([4]; 10 μM, in the presence of 30 μM forskolin, 30 min): more efficacious than 10 μM dmPGE2; cAMP accumulation, efficacy compared ([4]; absence or presence of 30 μM forskolin): significantly more efficacious than dmPGE2; span of concentration-response curve (cAMP) ([4]; human haematopoetic stem and progenitor cells): more than two orders of magnitude between 10 and 90% of the response
